Converted amounts (≈) assume the structure as drawn.
How the values were obtained:
Format in all cases: functional, cell-based
[1] = system: L1210; assay: Cytostatic activity against Mus musculus (mouse) L1210 cells after 48 hr by coulter counter analysis; conditions: L1210, 48 h
[2] = system: MOLT-4; assay: Cytostatic activity against Homo sapiens (human) Molt4/C8 cells after 72 hr by coulter counter analysis; conditions: MOLT-4, 72 h
[3] = system: CCRF-CEM; assay: Cytostatic activity against Homo sapiens (human) CEM cells after 72 hr by coulter counter analysis

Compound | IC50 [1] [µg/mL] | IC50 [2] [µg/mL] | IC50 [3] [µg/mL]
O=C(O)/C(=C/c1ccccc1Cl)c1ccccc1 | 76 (≈ 294 µM) | 37 (≈ 143 µM) | 93 (≈ 359 µM)
O=C(O)/C(=C/c1ccccc1F)c1ccccc1 | > 200 | 89 (≈ 367 µM) | > 200
CNC(=O)/C(=C/c1ccccc1Cl)c1ccccc1 | 65 (≈ 239 µM) | 77 (≈ 283 µM) | 60 (≈ 221 µM)
CNC(=O)/C(=C/c1ccc(OC)cc1)c1ccccc1 | 68 (≈ 254 µM) | 166 (≈ 621 µM) | 128 (≈ 479 µM)
CCN(CC)C(=O)/C(=C/c1ccccc1Cl)c1ccccc1 | 24 (≈ 76.5 µM) | 14 (≈ 44.6 µM) | 18 (≈ 57.4 µM)
CCNC(=O)/C(=C/c1ccccc1)c1ccccc1 | 132 (≈ 525 µM) | 112 (≈ 446 µM) | 26 (≈ 103 µM)
CCNC(=O)/C(=C/c1ccc(OC)cc1)c1ccccc1 | 148 (≈ 526 µM) | 150 (≈ 533 µM) | 116 (≈ 412 µM)
CNC(=O)/C(=C/c1ccccc1F)c1ccccc1 | 85 (≈ 333 µM) | 72 (≈ 282 µM) | 89 (≈ 349 µM)
CNC(=O)/C(=C/c1ccccc1O)c1ccccc1 | > 200 | > 200 | > 200
COC(=O)/C(=C/c1ccccc1Cl)c1ccccc1 | 25 (≈ 91.7 µM) | 16 (≈ 58.7 µM) | 19 (≈ 69.7 µM)
COC(=O)/C(=C/c1ccc(OC)cc1)c1ccccc1 | 66 (≈ 246 µM) | 71 (≈ 265 µM) | 71 (≈ 265 µM)
Fc1ccc(/N=C/c2ccccc2Cl)cc1Cl | 6.4 (≈ 23.9 µM) | 3.9 (≈ 14.5 µM) | 10 (≈ 37.3 µM)
Fc1ccc(/N=C/c2ccccc2Cl)cc1 | 6 (≈ 25.7 µM) | 0.77 (≈ 3.3 µM) | 2.1 (≈ 8.99 µM)
Clc1ccccc1/C=N/c1ccc(Br)cc1 | 2.1 (≈ 7.13 µM) | 1.5 (≈ 5.09 µM) | 4.5 (≈ 15.3 µM)
Fc1ccc(/N=C/c2cccs2)cc1Cl | 3.2 (≈ 13.3 µM) | 16 (≈ 66.7 µM) | 25 (≈ 104 µM)
COc1ccc(/C=C/c2ccc(F)cc2)cc1 | 26 (≈ 114 µM) | > 200 | 156 (≈ 683 µM)
Fc1ccc(/C=C/c2ccccc2F)cc1 | 62 (≈ 287 µM) | 61 (≈ 282 µM) | 83 (≈ 384 µM)
Cc1ccc(/C=C/c2ccccc2F)cc1 | 72 (≈ 339 µM) | 30 (≈ 141 µM) | 78 (≈ 367 µM)
Fc1ccc(/C=C/c2ccccc2)cc1 | > 200 | > 200 | > 200
COc1ccc(/C=C/c2ccc(C)cc2)cc1 | > 200 | > 200 | > 200
O=C(O)/C(=C/c1ccccc1O)c1ccccc1 | > 200 | > 200 | > 200
Cc1ccc(/C=C/c2ccc(N(C)C)cc2)cc1 | 143 (≈ 602 µM) | > 200 | > 200
N[C@@H](Cc1ccc(N(CCCl)CCCl)cc1)C(=O)O [MELPHALAN] | 2.1 (≈ 6.88 µM) | 3.2 (≈ 10.5 µM) | 2.5 (≈ 8.19 µM)
